Experimental data reported in ChEMBL document CHEMBL1135337, “Synthesis and DNA binding properties of saturated distamycin analogues” (Bioorg Med Chem Lett, 2002).

System: Nucleic Acid
Assay: Concentration required for 50% displacement of ethidium bromide from p[dA]p[dT] in a fluorescence intercalator displacement (FID) assay
Format: nucleic-acid assay

| Structure (SMILES) | C50 [µM] |
| --- | --- |
| N=C(N)CCNC(=O)[C@H]1C[C@H](NC(=O)[C@H]2C[C@H](NC(=O)[C@H]3C[C@H](NC=O)CO3)CO2)CO1 | 5.4 |
| N=C(N)CCNC(=O)[C@@H]1C[C@@H](NC(=O)[C@@H]2C[C@@H](NC(=O)[C@@H]3C[C@@H](NC=O)CN3C(=O)OCc3ccccc3)CN2C(=O)OCc2ccccc2)CN1C(=O)OCc1ccccc1 | 5.1 |
| N=C(N)CCNC(=O)[C@@H]1C[C@@H](NC(=O)[C@@H]2C[C@@H](NC(=O)[C@@H]3C[C@@H](NC=O)CN3)CN2)CN1 | 8.55 |
| N=C(N)CCNC(=O)[C@@H]1CC[C@@H](NC(=O)[C@@H]2CC[C@@H](NC(=O)[C@@H]3CC[C@@H](NC=O)C3)C2)C1 | 7.91 |
| N=C(N)CCNC(=O)[C@H]1C[C@H](NC(=O)[C@H]2C[C@H](NC(=O)C3C[C@H](NC=O)CN3C(=O)OCc3ccccc3)CN2C(=O)OCc2ccccc2)CN1C(=O)OCc1ccccc1 (some centres undefined) | 4.7 |

Results, then the compound that gave them:

| C50 [µM] | Structure (SMILES) |
| --- | --- |
| 0.46 | Cn1cc(NC(=O)c2cc(NC(=O)c3cc(NC=O)cn3C)cn2C)cc1C(=O)NCCC(=N)N |
| 6.37 | N=C(N)CCNC(=O)[C@H]1C[C@H](NC(=O)[C@H]2C[C@H](NC(=O)[C@H]3C[C@H](NC=O)CN3)CN2)CN1 |
| 5.5 | N=C(N)CCNC(=O)[C@@H]1C[C@@H](NC(=O)[C@@H]2C[C@@H](NC(=O)[C@@H]3C[C@@H](NC=O)CO3)CO2)CO1 |
| 6.7 | CN1C[C@@H](NC(=O)[C@H]2C[C@H](NC(=O)[C@H]3C[C@H](NC=O)CN3C)CN2C)C[C@@H]1C(=O)NCCC(=N)N |
